Reference: patent US10736907B2, “Use of sugar-alcohols in tibolone compositions” (Mithra Pharmaceuticals S.A., priority 2016, dated 2020)
Where two headings read alike, the source gives them in different places.

Experiment: Tibolone impurities (A, B, C, total except C) in tablets by HPLC just after production and during storage (stability)
Assay type: physicochemical
Description: Tibolone tablets were manufactured by a conventional direct compression process. Briefly, the raw materials were weighed, sieved and homogenized. Following homogenization, the mixture was compressed into tablets. Just after production (i.e. at t=0), the tablets were analyzed for tibolone impurities by a chromatography (HPLC) method that allows a suitable separation between the peaks of impurities A, B and C (Tibolone degradation products described in the current European Pharmacopeia Monograph 1739) under the following conditions: • Equipment: HPLC system • Pre-column: Universal RP, EC 4/3 • Stationary phase: Nucleodur 100-3 C18ec Particulars' diameter: 3 μm • Length: 150 mm • Internal diameter: 4.6 mm • Mobile phase: • Solvent A: water for chromatography R • Solvent B: Acetonitrile for chromatography R • Gradient program: […]
The tablets were packed into PVC/Aluminium blisters and stored either 1) at a temperature of 25° C. and a relative humidity of 60% (long term stability conditions for Zone II), 2) at a temperature of 40° C. and a relative humidity of 75% (accelerated stability conditions), or 3) at ambient conditions (laboratory conditions, less than 25° C., no humidity control). After 1, 2, 3 and/or 6 months of storage (up to 18 months for batches #2 and #3), the tablets were analyzed for tibolone impurities.

| stabilizing effect on tibolone in the tablets (in words) | SMILES | stabilizing effect on tibolone in the tablets (in words) (excipient added to tibolone tablets) |
| --- | --- | --- |
|  | O=C(O)CN(CCN(CC(=O)O)CC(=O)O)CC(=O)O [EDTA] | does not further stabilize |
| additional stabilizing effect | CCCCCCCCCCCCCCCC(=O)OC[C@H](O)[C@H]1OC(=O)C(O)=C1O [ascorbyl palmitate] |  |
